For 2 compounds, Kd results are on record in article doi:10.1101/2025.03.23.644840v2 (biorxiv, 2025).

Assay in all cases: isothermal titration calorimetry
For orientation: ITC needs no label: the signal is the heat of the interaction.

The target of one test is Anc1. In kind it is binding, synthetic construct. The settings on record: 25 °C; 20 mM HEPES, 150 mM NaCl, 2% glycerol, pH 8; 1:1 model.
In a further test the target is ΔAnc1. On the set-up: species or system synthetic construct. The settings on record: 25 °C; 20 mM HEPES, 150 mM NaCl, 2% glycerol, pH 8; 1:1 model.
The target of the next test is ecLacI (Escherichia coli, UniProt P03023). The class given is binding.
Another test deals with Anc4. The class given is binding, synthetic construct. The settings on record: 25 °C; 20 mM HEPES, 150 mM NaCl, 2% glycerol, pH 8; 1:1 model.
The next test has as its target Anc3. In kind it is binding, synthetic construct. The note with it: 25 °C; 20 mM HEPES, 150 mM NaCl, 2% glycerol, pH 8; 1:1 model.
For the next test, the target named is Anc2. The class given is binding, synthetic construct. The settings on record: 25 °C; 20 mM HEPES, 150 mM NaCl, 2% glycerol, pH 8; 1:1 model.
The next test addresses ΔAnc4. Further details: species or system synthetic construct. The note with it: 25 °C; 20 mM HEPES, 150 mM NaCl, 2% glycerol, pH 8; 1:1 model.

Structures are written as SMILES. Read-outs that look alike come from different tables or passages of the source.

ecLacI, sequence (P03023 whole entry): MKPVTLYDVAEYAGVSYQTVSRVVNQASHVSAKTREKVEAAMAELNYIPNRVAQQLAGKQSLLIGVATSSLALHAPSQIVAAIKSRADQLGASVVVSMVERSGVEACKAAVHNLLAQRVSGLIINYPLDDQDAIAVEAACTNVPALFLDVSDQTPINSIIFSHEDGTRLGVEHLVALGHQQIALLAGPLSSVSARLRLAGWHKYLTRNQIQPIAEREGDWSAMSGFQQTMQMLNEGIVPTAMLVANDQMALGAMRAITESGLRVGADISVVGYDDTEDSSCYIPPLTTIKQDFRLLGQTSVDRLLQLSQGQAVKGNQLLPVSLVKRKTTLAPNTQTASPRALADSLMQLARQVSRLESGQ

Usually Kd stands for the constant that tells how readily two partners part at equilibrium. For `C[C@H]1OC(O)[C@H](O)[C@@H](O)[C@H]1O` (stereo partly drawn) [D-fucose], the Kd at Anc1 amounted to 0.127 mM; on ΔAnc1, 420 µM; at ecLacI (25 °C, 20 mM HEPES, 150 mM NaCl, 2% glycerol, pH 8, 1:1 model), 37 mM; on Anc4, 15 mM.

Regarding `CO[C@@H]1O[C@H](CO)[C@H](O)[C@H](O)[C@H]1O` [BMDG], the Kd on Anc1 turned out to be 4 mM; at ecLacI, 0.306 mM; at Anc3, 2.5 mM; on Anc4 it was 0.55 mM; on Anc2, 2.2 mM; at ΔAnc4 it was 430 µM.
